Among the data in patent publication US8975398B2, “NAMPT inhibitors” (AbbVie Inc., priority 2012, dated 2015) are IC50 values, retold here.

For test [1], the target named is NAMPT (human, recombinant, C-terminally His-tagged) (Homo sapiens, UniProt P43490). The experiment in a line: Time-Resolved Fluorescence Resonance Energy Transfer (TR-FRET) Binding Assay of NAMPT. Particulars: 6.8 nM NAMPT, 200 nM probe, equilibrated 3 hours, absence of substrates. Summed up:
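Probe displacement measured by TR-FRET (Ex 337 nm; 520/495 nm ratio) after 3 h room-temperature equilibration of compound with 6.8 nM His-tagged human NAMPT, 1 nM Tb-anti-His antibody and 200 nM Oregon Green 488 nicotinamide-site probe, pH 7.5 HEPES buffer, 2% DMSO. Control-normalized data fit four-parameter logistic for IC50.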
(In TR-FRET formats the signal depends on donor and acceptor labels being close together.)

The target of another test is NAMPT (Homo sapiens, UniProt P43490). The experiment in a line: Time-Resolved Fluorescence Resonance Energy Transfer (TR-FRET) Binding Assay of NAMPT with PRPP. Conditions: 2 nM NAMPT, 2 nM probe, 200 uM PRPP and 2.5 mM ATP, equilibrated 16 hours. The procedure, abridged:
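Binding measured by TR-FRET after a 16-hour equilibration meant to permit enzymatic compound modification. Substrates present at 200 uM PRPP and 2.5 mM ATP, with 2 nM enzyme, 2 nM probe, 1 nM Tb-anti-His antibody and 2% DMSO final.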

NAMPT (human, recombinant, C-terminally His-tagged), sequence (P43490 whole entry): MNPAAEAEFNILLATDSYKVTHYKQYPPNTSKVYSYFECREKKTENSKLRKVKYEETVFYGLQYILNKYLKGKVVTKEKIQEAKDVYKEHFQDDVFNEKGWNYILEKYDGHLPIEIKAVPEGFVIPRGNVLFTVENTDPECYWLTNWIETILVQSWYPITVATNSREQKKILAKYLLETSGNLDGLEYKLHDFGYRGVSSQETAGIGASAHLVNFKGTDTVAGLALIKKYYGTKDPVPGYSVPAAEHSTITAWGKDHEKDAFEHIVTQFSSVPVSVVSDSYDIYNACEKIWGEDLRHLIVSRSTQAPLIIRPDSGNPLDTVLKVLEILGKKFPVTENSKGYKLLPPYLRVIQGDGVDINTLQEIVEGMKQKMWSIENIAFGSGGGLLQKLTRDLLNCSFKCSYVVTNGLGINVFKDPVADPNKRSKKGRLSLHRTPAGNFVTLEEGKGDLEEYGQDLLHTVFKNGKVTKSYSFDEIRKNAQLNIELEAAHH
NAMPT, sequence (P43490 whole entry): as above

In general, IC50 refers to the concentration at which inhibition is half-maximal. Regarding `CCC(C)(C)C(=O)N1CCC(c2ccc(NC(=O)C3CN(c4cccnc4)C3)cc2)CC1` [Example 133, N-{4-[1-(2,2-dimethylbutanoyl)piperidin-4-yl]phenyl}-1-(pyridin-3-yl)azetidine-3-carboxamide], the results for the IC50 (in test [1]; on NAMPT) were 12 nM and 0.626 nM, respectively.

On to `CCCC(=O)N1CCC(c2ccc(NC(=O)C3CN(c4cccnc4)C3)cc2)CC1` [Example 134, N-[4-(1-butanoylpiperidin-4-yl)phenyl]-1-(pyridin-3-yl)azetidine-3-carboxamide], for which the IC50 came out at 16.9 nM in test [1] and 0.361 nM at NAMPT.

In the case of `COCC(=O)N1CCC(c2ccc(NC(=O)C3CN(c4cccnc4)C3)cc2)CC1` [Example 135, N-{4-[1-(methoxyacetyl)piperidin-4-yl]phenyl}-1-(pyridin-3-yl)azetidine-3-carboxamide], the 50% inhibitory concentration (IC50) stood at 33.9 nM in test [1] and 0.293 nM at NAMPT.

For `O=C(Nc1ccc(C2CCN(C(=O)C3CCCCC3)CC2)cc1)C1CN(c2cccnc2)C1` [Example 136, N-{4-[1-(cyclohexylcarbonyl)piperidin-4-yl]phenyl}-1-(pyridin-3-yl)azetidine-3-carboxamide], the figures for the half-inhibitory concentration (IC50) (in test [1]; on NAMPT) were 20.4 nM and 0.635 nM, respectively.

`CC(C)CC(=O)N1CCC(c2ccc(NC(=O)C3CN(c4cccnc4)C3)cc2)CC1` [Example 137, N-{4-[1-(3-methylbutanoyl)piperidin-4-yl]phenyl}-1-(pyridin-3-yl)azetidine-3-carboxamide]: the IC50 was found to be 17.6 nM in test [1] and 0.459 nM at NAMPT.

On to `O=C(Nc1ccc(C2CCN(C(=O)C3CCCC3)CC2)cc1)C1CN(c2cccnc2)C1` [Example 138, N-{4-[1-(cyclopentylcarbonyl)piperidin-4-yl]phenyl}-1-(pyridin-3-yl)azetidine-3-carboxamide], for which the half-maximal inhibitory concentration (IC50) in test [1] worked out at 21.8 nM; at NAMPT, 0.445 nM.

For the molecule `CC(C)C(C)C(=O)N1CCC(c2ccc(NC(=O)C3CN(c4cccnc4)C3)cc2)CC1` (stereo not shown) [Example 139, N-{4-[1-(2,3-dimethylbutanoyl)piperidin-4-yl]phenyl}-1-(pyridin-3-yl)azetidine-3-carboxamide], the results for the half-maximal inhibitory concentration (IC50) (in test [1]; on NAMPT) were 12 nM and 0.473 nM, respectively.

On to `CC(C)(C)CC(=O)N1CCC(c2ccc(NC(=O)C3CN(c4ccnnc4)C3)cc2)CC1` [Example 140, N-{4-[1-(3,3-dimethylbutanoyl)piperidin-4-yl]phenyl}-1-(pyridazin-4-yl)azetidine-3-carboxamide], for which the 50% inhibitory concentration (IC50) in test [1] amounted to 11 nM; at NAMPT, 8.87 nM.

Turning to `CC(C)(O)C(=O)N1CCC(c2ccc(NC(=O)[C@H]3CCN(c4ccnnc4)C3)cc2)CC1` [Example 141, (3S)—N-{4-[1-(2-hydroxy-2-methylpropanoyl)piperidin-4-yl]phenyl}-1-(pyridazin-4-yl)pyrrolidine-3-carboxamide], the values for the IC50 (in test [1]; on NAMPT) were 1240 nM and 75.2 nM, respectively.

On to `O=C(Nc1ccc(C2CCN(C(=O)CC3CCCC3)CC2)cc1)[C@H]1CCN(c2ccnnc2)C1` [Example 142, (3S)—N-{4-[1-(cyclopentylacetyl)piperidin-4-yl]phenyl}-1-(pyridazin-4-yl)pyrrolidine-3-carboxamide], for which the IC50 came out at 1560 nM in test [1] and 32.8 nM at NAMPT.

Consider `CC[C@H](C)C(=O)N1CCC(c2ccc(NC(=O)C3CN(c4ccnnc4)C3)cc2)CC1` [Example 143, N-(4-{1-[(2S)-2-methylbutanoyl]piperidin-4-yl}phenyl)-1-(pyridazin-4-yl)azetidine-3-carboxamide], for which the IC50 was 17 nM in test [1] and 31.1 nM on NAMPT.

Take `O=C(Nc1ccc(C2CCN(C(=O)CC3CCCC3)CC2)cc1)C1CN(c2ccnnc2)C1` [Example 144, N-{4-[1-(cyclopentylacetyl)piperidin-4-yl]phenyl}-1-(pyridazin-4-yl)azetidine-3-carboxamide]: the figures for the 50% inhibitory concentration (IC50) (in test [1]; at NAMPT) were 14.6 nM and 34.4 nM, respectively.

As to `O=C(Nc1ccc(C2CCN(C(=O)CC3CCOCC3)CC2)cc1)C1CN(c2ccnnc2)C1` [Example 145, 1-(pyridazin-4-yl)-N-{4-[1-(tetrahydro-2H-pyran-4-ylacetyl)piperidin-4-yl]phenyl}azetidine-3-carboxamide], the IC50 in test [1] was found to be 40.6 nM; on NAMPT, 58.1 nM.

For `O=C(Nc1ccc(C2CCN(C(=O)C3CCOCC3)CC2)cc1)C1CN(c2ccnnc2)C1` [Example 146, 1-(pyridazin-4-yl)-N-{4-[1-(tetrahydro-2H-pyran-4-ylcarbonyl)piperidin-4-yl]phenyl}azetidine-3-carboxamide], the IC50 worked out at 65.9 nM in test [1] and 109 nM at NAMPT.

Turning to `CC(C)C(=O)N1CCC(c2ccc(NC(=O)C3CN(c4cccnn4)C3)cc2)CC1` [Example 147, N-{4-[1-(2-methylpropanoyl)piperidin-4-yl]phenyl}-1-(pyridazin-3-yl)azetidine-3-carboxamide], the results for the IC50 (in test [1]; on NAMPT) were 34.6 nM and 1.47 nM, respectively.

Regarding `CC(C)Cn1cc(-c2ccc(NC(=O)C3CN(c4ccnnc4)C3)cc2)cn1` [Example 148, N-{4-[1-(2-methylpropyl)-1H-pyrazol-4-yl]phenyl}-1-(pyridazin-4-yl)azetidine-3-carboxamide], the values for the IC50 (in test [1]; at NAMPT) were 42.9 nM and 20.1 nM, respectively.

As for `Cc1ncccc1N1CC(C(=O)Nc2ccc(C3CCN(C(=O)c4ccccc4)CC3)cc2)C1` [Example 149, N-[4-(1-benzoylpiperidin-4-yl)phenyl]-1-(2-methylpyridin-3-yl)azetidine-3-carboxamide], the IC50 in test [1] was 20.7 nM; on NAMPT, 54.3 nM.

As for `Cc1ncccc1N1CC(C(=O)Nc2ccc(C3CCN(C(=O)c4ccccc4F)CC3)cc2)C1` [Example 150, N-{4-[1-(2-fluorobenzoyl)piperidin-4-yl]phenyl}-1-(2-methylpyridin-3-yl)azetidine-3-carboxamide], the results for the IC50 (in test [1]; at NAMPT) were 6.53 nM and 43.8 nM, respectively.

`Cc1ncccc1N1CC(C(=O)Nc2ccc(C3CCN(C(=O)c4ccccc4Cl)CC3)cc2)C1` [Example 151, N-{4-[1-(2-chlorobenzoyl)piperidin-4-yl]phenyl}-1-(2-methylpyridin-3-yl)azetidine-3-carboxamide]: the IC50 turned out to be 17.4 nM in test [1] and 43.6 nM at NAMPT.

On to `Cc1ncccc1N1CC(C(=O)Nc2ccc(C3CCN(C(=O)c4cccc(F)c4)CC3)cc2)C1` [Example 152, N-{4-[1-(3-fluorobenzoyl)piperidin-4-yl]phenyl}-1-(2-methylpyridin-3-yl)azetidine-3-carboxamide], for which the IC50 was 87.6 nM in test [1] and 101 nM on NAMPT.

For `Cc1ncccc1N1CC(C(=O)Nc2ccc(C3CCN(C(=O)c4cccc(Cl)c4)CC3)cc2)C1` [Example 153, N-{4-[1-(3-chlorobenzoyl)piperidin-4-yl]phenyl}-1-(2-methylpyridin-3-yl)azetidine-3-carboxamide], the results for the half-inhibitory concentration (IC50) (in test [1]; on NAMPT) were 266 nM and 122 nM, respectively.

Take `Cc1ncccc1N1CC(C(=O)Nc2ccc(C3CCN(C(=O)c4cc(Cl)cc(Cl)c4)CC3)cc2)C1` [Example 154, N-{4-[1-(3,5-dichlorobenzoyl)piperidin-4-yl]phenyl}-1-(2-methylpyridin-3-yl)azetidine-3-carboxamide]: the values for the IC50 (in test [1]; at NAMPT) were 524 nM and 16.1 nM, respectively.

`Cc1ncccc1N1CC(C(=O)Nc2ccc(C3CCN(C(=O)c4ccc(F)cc4)CC3)cc2)C1` [Example 155, N-{4-[1-(4-fluorobenzoyl)piperidin-4-yl]phenyl}-1-(2-methylpyridin-3-yl)azetidine-3-carboxamide]: the figures for the IC50 (in test [1]; on NAMPT) were 294 nM and 44 nM, respectively.

Consider `Cc1ncccc1N1CC(C(=O)Nc2ccc(C3CCN(C(=O)c4ccc(Cl)cc4)CC3)cc2)C1` [Example 156, N-{4-[1-(4-chlorobenzoyl)piperidin-4-yl]phenyl}-1-(2-methylpyridin-3-yl)azetidine-3-carboxamide], for which the values for the IC50 (in test [1]; on NAMPT) were 396 nM and 84.3 nM, respectively.

With `Cc1ncccc1N1CC(C(=O)Nc2ccc(C3CCN(C(=O)c4ccc(C(F)(F)F)cc4)CC3)cc2)C1` [Example 157, 1-(2-methylpyridin-3-yl)-N-(4-{1-[4-(trifluoromethyl)benzoyl]piperidin-4-yl}phenyl)azetidine-3-carboxamide], the IC50 in test [1] turned out to be 1070 nM; at NAMPT, 192 nM.

Consider `Cc1ncccc1N1CC(C(=O)Nc2ccc(C3CCN(C(=O)c4cccnn4)CC3)cc2)C1` [Example 158, 1-(2-methylpyridin-3-yl)-N-{4-[1-(pyridazin-3-ylcarbonyl)piperidin-4-yl]phenyl}azetidine-3-carboxamide], for which the 50% inhibitory concentration (IC50) in test [1] was 2900 nM; at NAMPT it was 224 nM.

As to `CCCCC(=O)N1CCC(c2ccc(NC(=O)C3CN(c4cccnc4C)C3)cc2)CC1` [Example 159, 1-(2-methylpyridin-3-yl)-N-[4-(1-pentanoylpiperidin-4-yl)phenyl]azetidine-3-carboxamide], the values for the 50% inhibitory concentration (IC50) (in test [1]; at NAMPT) were 137 nM and 61.2 nM, respectively.

Take `CCC(C)CC(=O)N1CCC(c2ccc(NC(=O)C3CN(c4cccnc4C)C3)cc2)CC1` (stereo not shown) [Example 160, N-{4-[1-(3-methylpentanoyl)piperidin-4-yl]phenyl}-1-(2-methylpyridin-3-yl)azetidine-3-carboxamide]: the IC50 in test [1] is 74.5 nM; at NAMPT, 70.8 nM.

Take `Cc1ncccc1N1CC(C(=O)Nc2ccc(C3CCN(C(=O)CC4C[C@@H]5CC[C@H]4C5)CC3)cc2)C1` (stereo partly drawn) [Example 161, N-(4-{1-[(1S,4R)-bicyclo[2.2.1]hept-2-ylacetyl]piperidin-4-yl}phenyl)-1-(2-methylpyridin-3-yl)azetidine-3-carboxamide]: the half-inhibitory concentration (IC50) in test [1] is 128 nM; on NAMPT, 59.7 nM.
